Reference: article PMC9861386, “N-Heterocyclic Carbene-Iridium Complexes as Photosensitizers for In Vitro Photodynamic Therapy to Trigger Non-Apoptotic Cell Death in Cancer Cells” (Molecules, 2023)
Where two headings read alike, the source gives them in different places. Where a SMILES comes first, the peptide text is derived from it. The star is where a group is joined. Cbz = O=C(OCc1ccccc1)*; CH2F = FC*

Legend:
[1] = Photophysical measurements (emission, quantum yield, lifetime) in CH2Cl2; format: physicochemical; conditions: CH2Cl2, 298 K, references POPOP and quinine sulfate
From the text: All complexes have been photophysically investigated at standard pressure in CH2Cl2 at 298 K. The absorption spectra of complexes 4a to 4g in CH2Cl2 at 298 K are shown in Figure 7. The strong absorption bands below 300 nm correspond to spin-allowed ^1π→π* electronic ligand-centered (LC) transitions. The structureless bands at 300–360 nm are attributed to ppy-to-ppy ^1π→π* […] charge transfer (LLCT) and Ir-to-ppy metal-to-ligand charge transfer (MLCT) transitions. The lowest-lying bands in the visible region can be assigned to both singlet and triplet MLCT transitions. No significant difference in the absorption spectra of complexes 4a to 4g can be found in the CH2Cl2 solution.
The luminescence spectra of complexes 4a to 4f in CH2Cl2 at 298 K are shown in Figure 8 and their photophysical data are summarized in Table 1.
The relative emission quantum yields (ΦPL) of these complexes in CH2Cl2 at room temperature were measured by using POPOP and quinine sulfate in 1 N H2SO4 as standard references (ΦPL = 97% and ΦPL = 54%, respectively). […] In addition, the excited-state lifetimes of complexes 4a to 4d are in the range of 166.4–190.7 ns, indicating the phosphorescence nature of the emissions.
UV/Vis absorption spectra were recorded at RT on solutions contained in quartz cuvettes (optical pathlength 1 cm, Hellma® (HELLMA, Müllheim, Germany)) with a PerkinElmer® (PerkinElmer, Waltham, MA, USA) UV/VIS/NIR spectrophotometer Lambda 950 and a PerkinElmer® detector UV/VIS/NIR Accessory 2D Detector Module.
Fluorescence and phosphorescence emission spectra were obtained with a HORIBA JOBIN YVON (Bensheim, Germany) fluromax-4 and spectrofluorometer.
Luminescence quantum yields were measured according to the method of Demas and Crosby, on solution samples at RT. The quantum yield is defined as: ΦS=ΦR*As/Ar* ηs/ηr^2^2 where ΦS is the quantum yield of the sample, ΦR is the known quantum yield of the reference standard at the area subtended by the emission band (on a wavelength scale) and η is the refractive index of the solvent used for the preparation of the solution. As (related to the sample) and Ar (related to the reference) must be excitation wavelength. Different standards were selected depending on the spectral region of the interest: POPOP in hexane (Φ = 97%) and QUININNE in water (Φ = 54%).
Fluorescence lifetime measurements were performed by an Edinburgh FLS920 spectrofluorometer equipped with a TCC900 card for data acquisition in time-correlated single-photon counting experiments (0.5 ns time resolution) with a D2 lamp and an LDH-P-C-405 pulsed diode laser. The estimated experimental error was 2 nm on the band maximum (5% on the lifetime, 10% on the fluorescence quantum yield).

[2] = system: NIH3T3; assay: MTT cytotoxicity, 48 h; format: cell-based, murine
Method: (§1) The in vitro cytotoxicity of iridium(III) complexes 4a–4g was first evaluated against cancer cell lines PC-3 (human prostate) and T24 (human bladder) and the non-cancerous NIH-3T3 cell line (murine fibroblasts) using colorimetric MTT tests after 48 h of treatment. The dimeric iridium precursor [IrCl(ppy)2]2 was used as reference and the results are summarized in Table S1 (Supplementary Materials) in the supporting information file. […] The complexes were also evaluated for their cytotoxicity towards healthy NIH-3T3 cells, giving access to the selectivity index (SI). […] No linear correlation between lipophilicity and anti-cancer activity was found for the iridium(III) complexes 4a–4g. For the following biological studies, we focused on the C1 series.
(§2) Table S1. Cytotoxic activity of iridium(III) NHC complexes 4a−4g expressed as GI50 (μM) values towards selected cancer and normal cell lines as determined by MTT assay (48 h).a Complex PC-3 T24 NIH3T3 SI (PC-3) SI (T24) […]
(§3) a GI50 values correspond to the concentration of complexes causing 50 % inhibition of cell growth.
(§4) Data were obtained from three independent experiments.
(§5) The cytotoxic effects of the NHC precursors, the imidazolium salts, which represents the potential hydrolysis and/or degradation products of the complexes, have been published before [SI-1, SI-2]. […]

[3] = Octanol–water partition coefficient, shake-flask method; format: physicochemical; conditions: n-octanol/water, UV absorbance 260 nm
Method: Lipophilicities of all complexes have been measured by the classical shake-flask method, using UV absorption. The Log p values range from -0.063 to 0.861 in increasing order –0.063 (4a), 0.035 (4d), 0.519 (4f), 0.581 (4c), 0.842 (4b), 0.847 (4e) and 0.861 (4g).
The octanol–water partition coefficients (P) of 4a to 4g were determined using a shake-flask method. Water (100 mL, distilled after milli-Q purification) and n-octanol (100 mL, Sigma-Aldrich, St. Louis, MO, USA, ACS spectrophotometric grade, ≥99%) were shaken together for 24 h to allow saturation of both phases. Stock solutions of the […] compounds (50 μM) were prepared in the aqueous phase and aliquots (1 mL) of each of these stock solutions were then added to an equal volume of the n-octanol phase. The resultant biphasic solutions were mixed for 1 h and then centrifuged (3000× g, 5 min) (Eppendorf Centrifuges 5415R and 5804R) to separate the phases. The concentrations of the complexes in the organic and aqueous phases were then determined using UV absorbance spectroscopy (260 nm). Log P was defined as the logarithm of the ratio of the concentrations of the studied complex in the organic and aqueous phases (Log P = Log {[Ir(org)]/[Ir(aq)]}; values reported are the means of at least two separate determinations).

[4] = system: PC-3; assay: MTT cytotoxicity, 48 h; format: cell-based, human; conditions: for GI50: MTT; for SI (PC-3): NIH3T3 vs PC-3
Method: as §1, §2, §3, §4, §5

[5] = system: T24; assay: MTT cytotoxicity, 48 h; format: cell-based, human; conditions: for GI50: MTT; for SI (T24): NIH3T3 vs T24
Method: as §1, §2, §3, §4, §5

[6] = system: T24 bladder cancer cells; assay: MTT cell viability, 72 h, dark or 458 nm irradiation; format: cell-based, human; conditions: for GI50: 72 h, MTT
Method: (§6) For all biology experiments, the compounds were solubilized in DMSO to reach a final fixed concentration equal to 0.1% v/v to avoid cytotoxicity caused by DMSO [89]. The results are normalized to controls (0.1% v/v DMSO). Depending on the cell type, approximatively 1000 to 10,000 cells/cm^2 were seeded in 48-well plates for MTT, ATP and GSH assays and 60 mm Petri dishes for Western blots. Cells were allowed to attach overnight and then incubated for 4 h with the different complexes (in the dark), then irradiated for 10 min, followed by an incubation in the dark up to 72 h.
(§7) Irradiation was conducted using an in-house device: a series of blue light LEDs selected according to the absorption spectra of the compounds at a 458 nm wavelength with an emitted power of 9.6 watts. The absorbed energy, or irradiance, was measured at 458 nm with a Thorlabs Optical Power Meter PM100A at 5 and 10 cm distance between the cell layer and the light source and expressed as mW/cm^2.
(§8) A tetrazolium-based MTT reagent (3-(4,5-dimethylthiazol-2-yl)-2,5-diphenyltetrazolium bromide) was used to determine cell viability, as previously described. After 72 h of treatment at 37 °C and 5% CO2, cells were incubated with 25 μL MTT solution (5 mg/mL; Sigma-Aldrich) for 4 h. After solubilization with 500 μL of lysis buffer (DMSO), formazan was quantified by spectrophotometry with a microplate reader at 570 nm absorbance (ClarioSTAR, BMG LabTech, Champigny-sur-Marne, France). GI50 values corresponding to the concentration that caused 50% inhibition of cell proliferation were calculated from dose–response curves obtained by nonlinear regression analysis. All results were calculated from data obtained in at least three independent experiments.

[7] = system: PC-3 prostate cancer cells; assay: as above; format: cell-based, human; conditions: for GI50: 72 h, MTT
Method: as §6, §7, §8

[8] = system: NIH-3T3 fibroblasts; assay: as above; format: cell-based, murine; conditions: for GI50: 72 h, MTT
Method: as §6, §7, §8

[9] = system: MCF7/FasR cells; assay: Cell death with or without pan-caspase inhibitor z-VAD-fmk, MTT; format: cell-based, human; conditions: 10 µM z-VAD-fmk, MCF7/FasR and MCF7/FasR/Bcl-xL, 72 h
From the text: To determine the mechanism of cell death, we used MCF7 cells transfected to express the human Fas receptor (FasR) or doubly transfected to express the human Fas receptor and human Bcl-xL [75]. Since MCF7 cells express the TNF receptor endogenously, this allowed the study of both Fas- and TNFα-mediated apoptosis in the same cell model to assess whether cell death was dependent on the Bcl-2 family of mitochondrial proteins such as Bcl-xL. […] This is consistent with findings that death receptors such as FasR and TNFR can mediate apoptosis through both the extrinsic pathway (mitochondria-independent by directly activating executioner caspases via upstream caspase-8) and the intrinsic (mitochondrial) pathway controlled by the Bcl-2 family of proteins.
We next evaluated the effect of the pan-caspase inhibitor z-VAD-fmk on caspase signaling. As expected, the treatment with z-VAD-fmk rendered MCF7/FasR cells resistant to TNFα-induced PARP and caspase-7 processing (Figure 14A) and to the loss of cell viability (Figure 14B).
as §8, with “GI50 values corresponding to the concentration that caused 50% inhibition of cell proliferation were calculated from dose–response curves obtained by nonlinear regression analysis.” left out
Figure 11 Bcl-xL and z-VAD-fmk inhibited by Fas- or TNFα-induced cell death in MCF7 cells. […] Cell death was assessed by MTT assay. […]
Figure 14 Evaluation of apoptotic biomarkers. […] (B) Cell viability was evaluated in duplicate samples. Data are expressed as percent (%) of untreated cells and are the means of 3 independent experiments (***, p < 0.0001, NS, not significant).

[10] = GI50 non-irradiated / GI50 irradiated

| Compound | ΦPL emission quantum yield [1] [%] | GI50 [2] [µM] | Log P [3] | GI50 [4] [µM] | SI (PC-3) [4] | GI50 [5] [µM] | SI (T24) [5] | also measured |
| --- | --- | --- | --- | --- | --- | --- | --- | --- |
| F[P-](F)(F)(F)(F)F.c1ccc(C[n+]2ccn3[c]2[Ir-3]24([c]5ccccc5-c5cccc[n+]52)([c]2ccccc2-c2cccc[n+]24)[c]2n(cc[n+]2Cc2ccccc2)CC3)cc1 [Complex 4e] | 0.2 | 2.5 | 0.847 | 0.25 | 10.0 | 0.29 | 8.6 |  |
| CC(C)C[n+]1ccn2[c]1[Ir-3]13([c]4ccccc4-c4cccc[n+]41)([c]1ccccc1-c1cccc[n+]13)[c]1n(cc[n+]1CC(C)C)CC2.F[P-](F)(F)(F)(F)F [Complex 4f] | 0.2 | 4.1 | 0.519 | 0.91 | 4.5 | 0.91 | 4.5 |  |
| c1cc[c]2c(c1)-c1cccc[n+]1[Ir-3]213([Cl+][Ir-3]24([Cl+]1)([c]1ccccc1-c1cccc[n+]12)[c]1ccccc1-c1cccc[n+]14)[c]1ccccc1-c1cccc[n+]13 [[IrCl(ppy)2]2, reference compound] |  | > 20 |  | > 20 | > 1 | 14.8 | > 1.4 | GI50 ([6]; 458 nm irradiation 10 min, read-out: GI50 T24 Blue): 22 µM; PI T24 [6, 10]: 1.2; SI vs NIH, T24 Blue ([6]; blue light, GI50 NIH-3T3 / GI50 T24): 0.7; GI50 ([6]; dark, read-out: GI50 T24 Dark): 26 µM; SI vs NIH, T24 Dark ([6]; dark, GI50 NIH-3T3 / GI50 T24): 1.5; GI50 ([7]; 458 nm irradiation 10 min, read-out: GI50 PC-3 Blue): 14 µM; PI PC-3 [7, 10]: 2.1; SI vs NIH, PC-3 Blue ([7]; blue light, GI50 NIH-3T3 / GI50 PC-3): 1.0; GI50 ([7]; dark, read-out: GI50 PC-3 Dark): 29 µM; SI vs NIH, PC-3 Dark ([7]; dark, GI50 NIH-3T3 / GI50 PC-3): 1.4; GI50 ([8]; 458 nm irradiation 10 min, read-out: GI50 NIH-3T3 Blue): 14 µM; PI NIH-3T3 [8, 10]: 2.9; GI50 ([8]; dark, read-out: GI50 NIH-3T3 Dark): 40 µM |
| COC(=O)C[C@H](NC(=O)[C@H](C)NC(=O)[C@@H](NC(=O)OCc1ccccc1)C(C)C)C(=O)CF [z-VAD-fmk, reference compound] (Cbz-Val-Ala-Asp(OMe)-CH2F) |  |  |  |  |  |  |  | effect on cell death induced by Fas antibody and TNFα [9]: completely abolished cell death |
